The source of these data is ChEMBL document CHEMBL4602683, “The Isolation of Pyrroloformamide Congeners and Characterization of Their Biosynthetic Gene Cluster” (J Nat Prod, 2020).

The test system of assay [1] is Staphylococcus aureus. The assay is described as follows: Antibacterial activity against Methicillin resistant Staphylococcus aureus by resazurin dye based microdilution method. In kind it is functional.
Assay [2] has as its system Klebsiella pneumoniae. The assay is described as follows: Antibacterial activity against Klebsiella pneumoniae by resazurin dye based microdilution method. In kind it is functional. A general note: Resazurin is reduced to fluorescent resorufin, in cell work by metabolically active cells.
Assay [3] has as its system Staphylococcus aureus. The assay is described as follows: Antibacterial activity against Staphylococcus aureus ATCC 29213 by resazurin dye based microdilution method. It counts as functional.
Assay [4] relates to A549. The assay is described as follows: Cytotoxicity against human A549 cells by CCK8 assay. It counts as functional, cell-based. In general terms: Tetrazolium assays rely on reduction of a dye to a coloured formazan, in cell work by metabolically active cells.
The test system of assay [5] is Caco-2. The assay is described as follows: Cytotoxicity against human Caco2 cells by CCK8 assay. It counts as functional, cell-based.
In assay [6] the test system is Escherichia coli. The assay is described as follows: Antibacterial activity against Escherichia coli by resazurin dye based microdilution method. It counts as functional.
The subject of assay [7] is PC-3M. The assay is described as follows: Cytotoxicity against human PC3M cells after 72 hrs by MTT assay. In kind it is functional, cell-based.

As usually defined, the MIC is the lowest concentration found to suppress growth. Low values mean inhibition by little substance, high ones a need for much substance. As a reminder, the IC50 is the concentration needed to halve the response being measured. The low end stands for higher potency, the high end for lower potency.

In brackets after ≈: the same amount, converted by molar mass. Where only a bound is given, the exact number is not on record here.

For the compound `CN(C=O)C1=C2C(=CSS2(=O)=O)NC1=O`, the MIC is 8 µg/mL (≈ 32.5 µM) in assay [1], 64 µg/mL (≈ 260 µM) in assay [2], 8 µg/mL (≈ 32.5 µM) in assay [3] and 32 µg/mL (≈ 130 µM) in assay [6]. For the same compound, the IC50 in assay [4] and in assay [5] was over 64 µM each time.
As to `CN(C=O)c1c2sscc-2[nH]c1=O`, the MIC in assay [1], in assay [2], in assay [3] and in assay [6] was 0.5 µg/mL (≈ 2.33 µM) in each case. Further, the IC50 in assay [7] was determined as 1.7 µM; in assay [4], 1.34 µM; in assay [5], 0.57 µM.
On to `O=CNc1c2sscc-2[nH]c1=O`, for which the minimal inhibitory concentration (MIC) in assay [1] amounted to 2 µg/mL (≈ 9.99 µM); in assay [2] it was 1 µg/mL (≈ 4.99 µM); in assay [3], 4 µg/mL (≈ 20 µM); in assay [6], 1 µg/mL (≈ 4.99 µM).
In the case of `CN(C=O)C1=C2SCSC=C2NC1=O`, the MIC in assay [1], in assay [2], in assay [3] and in assay [6] was over 64 µg/mL throughout. For the same compound, the IC50 in assay [4] and in assay [5] was over 64 µM each time.
`CC(=O)NC[C@H]1CN(c2ccc(N3CCOCC3)c(F)c2)C(=O)O1` [LINEZOLID]: the MIC was 1 µg/mL (≈ 2.96 µM) in assay [1], over 64 µg/mL in assay [2], 1 µg/mL (≈ 2.96 µM) in assay [3] and over 64 µg/mL in assay [6].
